Numbered stars: 1 amine (or outer) side, 2 acyl side, 3 side chain; on linkers, the order of the positions; unused ones are H or OH. Square brackets hold non-standard residues; d marks the D form. Peptide text beside a SMILES is read from it. * marks the point of attachment. ξ: configuration not given here. DOTA(Lu)NH(CH2)6NHCOCH2 = O=C(CN1CCN2CCN3CCN(CC1)CC(=O)[O][Lu]([O]C(=O)C2)[O]C(=O)C3)NCCCCCCNC(=O)C*; X6 = O=C(CN1CCN2CCN3CCN(CC1)CC(=O)[O][Lu]([O]C(=O)C2)[O]C(=O)C3)NCCOCCOCCOCCNC(=O)C*; Ala(piperidin-4-yl) = O=C([C@H](CC1CCN([*:3])CC1)N[*:1])[*:2]; dTrp(βS-Me) = C[C@@H](c1c[nH]c2ccccc12)[C@@H](N)C(=O)O; Gly(piperidin-4-yl) = N[C@H](C(=O)O)C1CCNCC1; X20 = CN(C[C@H](N[*:1])C(=O)[*:2])c1ccccc1; dNMeW = CN[C@H](Cc1c[nH]c2ccccc12)C(=O)O; Dip = N[C@H](C(=O)O)C(c1ccccc1)c1ccccc1; X25 = O=C([C@H](CC1CNC1)N[*:1])[*:2]; Gly(cPent) = N[C@H](C(=O)O)C1CCCC1; NMeF = CN[C@@H](Cc1ccccc1)C(=O)O; 4Pal = N[C@@H](Cc1ccncc1)C(=O)O; Gly(cBu) = N[C@H](C(=O)O)C1CCC1; ξThr(3R) = C[C@@H](O)C(N)C(=O)O; Cha = N[C@@H](CC1CCCCC1)C(=O)O; Gly(cPr) = N[C@H](C(=O)O)C1CC1; NMehCys = CN[C@@H](CCS)C(=O)O; Cba = N[C@@H](CC1CCC1)C(=O)O; NMeK = CN[C@@H](CCCCN)C(=O)O; Phg = N[C@H](C(=O)O)c1ccccc1
biological target: SSTR2 (Homo sapiens, UniProt P30874); assay: SSTR binding affinity by radioligand binding competition assay ([125I]-Tyr11-Somatostatin, membrane extracts); settings: radioligand competition, [125I]-Tyr11-Somatostatin 0.1 nM, membrane extracts; Ki from IC50 by Cheng Prusoff; read-out: SSTR2 Ki
Sequence (P30874 whole entry): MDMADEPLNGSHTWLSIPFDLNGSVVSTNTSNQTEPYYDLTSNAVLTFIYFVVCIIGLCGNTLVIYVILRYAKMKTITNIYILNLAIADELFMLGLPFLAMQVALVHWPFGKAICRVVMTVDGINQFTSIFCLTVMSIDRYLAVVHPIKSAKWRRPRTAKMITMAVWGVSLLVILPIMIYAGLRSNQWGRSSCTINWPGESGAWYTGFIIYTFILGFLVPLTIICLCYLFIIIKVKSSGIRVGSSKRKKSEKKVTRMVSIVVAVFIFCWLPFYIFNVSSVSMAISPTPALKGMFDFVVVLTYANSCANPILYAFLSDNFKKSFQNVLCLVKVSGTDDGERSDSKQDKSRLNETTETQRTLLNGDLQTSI

SMILES	Ki [nM]
C[C@@H](O)[C@@H]1NC(=O)[C@H](CCCCN)NC(=O)[C@@H](Cc2c[nH]c3ccccc23)NC(=O)[C@H](Cc2ccncc2)NC(=O)[C@H](CCSCC(=O)NCCOCCOCCOCCNC(=O)CN2CCN3CCN4CCN(CC2)CC(=O)[O][Lu]([O]C(=O)C3)[O]C(=O)C4)N(C)C(=O)[C@H](Cc2ccccc2)NC1=O [RB-0003504] (cyclo([4Pal][dW]KTF[NMehCys](X6)))	1 to 3.33
C[C@@H](O)[C@@H]1NC(=O)[C@H](CCCCN)NC(=O)[C@@H](Cc2c[nH]c3ccccc23)NC(=O)[C@H](Cc2ccc(O)cc2)NC(=O)[C@H](CCCCCNC(=O)CN2CCN3CCN4CCN(CC2)CC(=O)[O][Lu]([O]C(=O)C3)[O]C(=O)C4)N(C)C(=O)[C@H](Cc2ccccc2)NC1=O [RB-0004536]	< 1
C[C@@H](O)C1NC(=O)[C@H](CCCCN)N(C)C(=O)[C@@H](Cc2c[nH]c3ccccc23)N(C)C(=O)[C@H](Cc2ccc(O)cc2)NC(=O)[C@H](CCSCC(=O)NCCCCCCNC(=O)CN2CCN3CCN4CCN(CC2)CC(=O)[O][Lu]([O]C(=O)C3)[O]C(=O)C4)N(C)C(=O)[C@H](Cc2ccccc2)N(C)C1=O (stereo partly drawn) [RB-0004538] (cyclo([NMeF][NMehCys](DOTA(Lu)NH(CH2)6NHCOCH2)Y[dNMeW][NMeK][ξThr(3R)]))	3.33 to 10
CN1C(=O)[C@H](Cc2ccccc2)NC(=O)[C@H](C2CCC2)NC(=O)[C@H](CCCCN)NC(=O)[C@@H](Cc2c[nH]c3ccccc23)NC(=O)[C@H](Cc2ccc(O)cc2)NC(=O)[C@@H]1CCSCC(=O)NCCCCCCNC(=O)CN1CCN2CCN3CCN(CC1)CC(=O)[O][Lu]([O]C(=O)C2)[O]C(=O)C3 [RB-0004540] (cyclo(F[NMehCys](DOTA(Lu)NH(CH2)6NHCOCH2)Y[dW]K[Gly(cBu)]))	< 1
CC(C)[C@@H]1NC(=O)[C@H](CCCCN)NC(=O)[C@@H]([C@@H](C)c2c[nH]c3ccccc23)NC(=O)[C@H](Cc2ccc(O)cc2)NC(=O)[C@H](CCSCC(=O)NCCCCCCNC(=O)CN2CCN3CCN4CCN(CC2)CC(=O)[O][Lu]([O]C(=O)C3)[O]C(=O)C4)N(C)C(=O)[C@H](Cc2ccccc2)NC1=O [RB-0004609] (cyclo(F[NMehCys](DOTA(Lu)NH(CH2)6NHCOCH2)Y[dTrp(βS-Me)]KV))	< 1
CC(C)[C@@H]1NC(=O)[C@H](CCCCN)N(C)C(=O)[C@@H](Cc2c[nH]c3ccccc23)N(C)C(=O)[C@H](Cc2ccc(O)cc2)NC(=O)[C@H](CCSCC(=O)NCCCCCCNC(=O)CN2CCN3CCN4CCN(CC2)CC(=O)[O][Lu]([O]C(=O)C3)[O]C(=O)C4)N(C)C(=O)[C@H](Cc2ccccc2)NC1=O [RB-0004611] (cyclo(F[NMehCys](DOTA(Lu)NH(CH2)6NHCOCH2)Y[dNMeW][NMeK]V))	< 1
CC(C)[C@@H]1NC(=O)[C@H](CCCCN)NC(=O)[C@@H](Cc2c[nH]c3ccccc23)NC(=O)[C@H](C(c2ccccc2)c2ccccc2)NC(=O)[C@H](CCSCC(=O)NCCCCCCNC(=O)CN2CCN3CCN4CCN(CC2)CC(=O)[O][Lu]([O]C(=O)C3)[O]C(=O)C4)N(C)C(=O)[C@H](Cc2ccccc2)NC1=O [RB-0004613] (cyclo([Dip][dW]KVF[NMehCys](DOTA(Lu)NH(CH2)6NHCOCH2)))	< 1
CC(C)[C@@H]1NC(=O)[C@H](CCCCN)NC(=O)[C@@H](Cc2c[nH]c3ccccc23)NC(=O)[C@H](Cc2ccc(O)cc2)NC(=O)[C@H](CCSCC(=O)NCCCCCCNC(=O)CN2CCN3CCN4CCN(CC2)CC(=O)[O][Lu]([O]C(=O)C3)[O]C(=O)C4)N(C)C(=O)[C@H](CN(C)c2ccccc2)NC1=O [RB-0004615] (cyclo(KV[X20][NMehCys](DOTA(Lu)NH(CH2)6NHCOCH2)Y[dW]))	< 1
CC(C)[C@@H]1NC(=O)[C@H](CCCCN)NC(=O)[C@@H](Cc2c[nH]c3ccccc23)NC(=O)[C@H](Cc2ccc(O)cc2)NC(=O)[C@H](CCSCC(=O)NCCCCCCNC(=O)CN2CCN3CCN4CCN(CC2)CC(=O)[O][Lu]([O]C(=O)C3)[O]C(=O)C4)N(C)C(=O)[C@H](CC2CCCCC2)NC1=O [RB-0004617] (cyclo([Cha][NMehCys](DOTA(Lu)NH(CH2)6NHCOCH2)Y[dW]KV))	1 to 3.33
CO[C@H](C)[C@@H]1NC(=O)[C@H](CCCCN)NC(=O)[C@@H](Cc2c[nH]c3ccccc23)NC(=O)[C@H](Cc2ccc(O)cc2)NC(=O)[C@H](CCSCC(=O)NCCCCCCNC(=O)CN2CCN3CCN4CCN(CC2)CC(=O)[O][Lu]([O]C(=O)C3)[O]C(=O)C4)N(C)C(=O)[C@H](Cc2ccccc2)NC1=O [RB-0004619]	< 1
CN1C(=O)[C@H](Cc2ccccc2)NC(=O)[C@H](CC2CCC2)NC(=O)[C@H](CCCCN)NC(=O)[C@@H](Cc2c[nH]c3ccccc23)NC(=O)[C@H](Cc2ccc(O)cc2)NC(=O)[C@@H]1CCSCC(=O)NCCCCCCNC(=O)CN1CCN2CCN3CCN(CC1)CC(=O)[O][Lu]([O]C(=O)C2)[O]C(=O)C3 [RB-0004621] (cyclo([Cba]F[NMehCys](DOTA(Lu)NH(CH2)6NHCOCH2)Y[dW]K))	< 1
CN1C(=O)[C@H](Cc2ccccc2)NC(=O)[C@H](C2CCCC2)NC(=O)[C@H](CCCCN)NC(=O)[C@@H](Cc2c[nH]c3ccccc23)NC(=O)[C@H](Cc2ccc(O)cc2)NC(=O)[C@@H]1CCSCC(=O)NCCCCCCNC(=O)CN1CCN2CCN3CCN(CC1)CC(=O)[O][Lu]([O]C(=O)C2)[O]C(=O)C3 [RB-0004623] (cyclo(F[NMehCys](DOTA(Lu)NH(CH2)6NHCOCH2)Y[dW]K[Gly(cPent)]))	< 1
C[C@@H](O)[C@@H]1NC(=O)[C@H](CCCCN)NC(=O)[C@@H](Cc2c[nH]c3ccccc23)NC(=O)[C@H](Cc2ccc(O)cc2)NC(=O)[C@H](CCSCC(=O)NCCCCCCNC(=O)CN2CCN3CCN4CCN(CC2)CC(=O)[O][Lu]([O]C(=O)C3)[O]C(=O)C4)N(C)C(=O)CNC1=O [RB-0004819] (cyclo(G[NMehCys](DOTA(Lu)NH(CH2)6NHCOCH2)Y[dW]KT))	< 1
C[C@@H](O)[C@@H]1NC(=O)[C@H](CCCCN)NC(=O)[C@@H](Cc2c[nH]c3ccccc23)NC(=O)[C@H](Cc2ccc(O)cc2)NC(=O)[C@H](CCSCC(=O)NCCCCCCNC(=O)CN2CCN3CCN4CCN(CC2)CC(=O)[O][Lu]([O]C(=O)C3)[O]C(=O)C4)N(C)C(=O)[C@H](c2ccccc2)NC1=O [RB-0004821] (cyclo(KT[Phg][NMehCys](DOTA(Lu)NH(CH2)6NHCOCH2)Y[dW]))	1 to 3.33
CC(C)[C@@H]1NC(=O)[C@H](CCCCN)NC(=O)[C@@H](Cc2c[nH]c3ccccc23)NC(=O)[C@H](Cc2ccc(O)cc2)NC(=O)[C@H](CCSCC(=O)NCCOCCOCCOCCNC(=O)CN2CCN3CCN4CCN(CC2)CC(=O)[O][Lu]([O]C(=O)C3)[O]C(=O)C4)N(C)C(=O)[C@H](Cc2ccccc2)NC1=O [RB-0004823] (cyclo(F[NMehCys](X6)Y[dW]KV))	< 1
CC(C)[C@@H]1NC(=O)[C@H](CCCCN)NC(=O)[C@@H]([C@@H](C)c2c[nH]c3ccccc23)NC(=O)[C@H](Cc2ccncc2)NC(=O)[C@H](CCSCC(=O)NCCCCCCNC(=O)CN2CCN3CCN4CCN(CC2)CC(=O)[O][Lu]([O]C(=O)C3)[O]C(=O)C4)N(C)C(=O)[C@H](Cc2ccccc2)NC1=O [RB-0004825] (cyclo([4Pal][dTrp(βS-Me)]KVF[NMehCys](DOTA(Lu)NH(CH2)6NHCOCH2)))	< 1
C[C@@H](O)[C@@H]1NC(=O)[C@H](CC2CCNCC2)NC(=O)[C@@H](Cc2c[nH]c3ccccc23)NC(=O)[C@H](Cc2ccc(O)cc2)NC(=O)[C@H](CCSCC(=O)NCCCCCCNC(=O)CN2CCN3CCN4CCN(CC2)CC(=O)[O][Lu]([O]C(=O)C3)[O]C(=O)C4)N(C)C(=O)[C@H](Cc2ccccc2)NC1=O [RB-0004864] (cyclo(F[NMehCys](DOTA(Lu)NH(CH2)6NHCOCH2)Y[dW][Ala(piperidin-4-yl)]T))	1 to 3.33
C[C@@H](O)[C@@H]1NC(=O)[C@H](CC2CNC2)NC(=O)[C@@H](Cc2c[nH]c3ccccc23)NC(=O)[C@H](Cc2ccc(O)cc2)NC(=O)[C@H](CCSCC(=O)NCCCCCCNC(=O)CN2CCN3CCN4CCN(CC2)CC(=O)[O][Lu]([O]C(=O)C3)[O]C(=O)C4)N(C)C(=O)[C@H](Cc2ccccc2)NC1=O [RB-0004866] (cyclo(F[NMehCys](DOTA(Lu)NH(CH2)6NHCOCH2)Y[dW][X25]T))	10 to 33.3
C[C@@H](O)[C@@H]1NC(=O)[C@H](C2CCNCC2)NC(=O)[C@@H](Cc2c[nH]c3ccccc23)NC(=O)[C@H](Cc2ccc(O)cc2)NC(=O)[C@H](CCSCC(=O)NCCCCCCNC(=O)CN2CCN3CCN4CCN(CC2)CC(=O)[O][Lu]([O]C(=O)C3)[O]C(=O)C4)N(C)C(=O)[C@H](Cc2ccccc2)NC1=O [RB-0004868] (cyclo(F[NMehCys](DOTA(Lu)NH(CH2)6NHCOCH2)Y[dW][Gly(piperidin-4-yl)]T))	3.33 to 10
CC(C)[C@@H]1NC(=O)[C@H](CCCCN)NC(=O)[C@@H](Cc2c[nH]c3ccccc23)NC(=O)[C@H](Cc2ccc(O)cc2)NC(=O)[C@H](CCSCC(=O)NCCCCCCNC(=O)CN2CCN3CCN4CCN(CC2)CC(=O)[O][Lu]([O]C(=O)C3)[O]C(=O)C4)N(C)C(=O)[C@H](C2CC2)NC1=O [RB-0005247] (cyclo([Gly(cPr)][NMehCys](DOTA(Lu)NH(CH2)6NHCOCH2)Y[dW]KV))	3.33 to 10
CC(C)[C@@H]1NC(=O)[C@H](CCCCN)NC(=O)[C@@H](Cc2c[nH]c3ccccc23)NC(=O)[C@H](Cc2ccc(O)cc2)NC(=O)[C@H](CCSCC(=O)NCCCCCCNC(=O)CN2CCN3CCN4CCN(CC2)CC(=O)[O][Lu]([O]C(=O)C3)[O]C(=O)C4)N(C)C(=O)[C@H](CC(N)=O)NC1=O [RB-0005253] (cyclo(KVN[NMehCys](DOTA(Lu)NH(CH2)6NHCOCH2)Y[dW]))	3.33 to 10
CC(C)[C@@H]1NC(=O)[C@H](CCCCN)NC(=O)[C@@H](Cc2c[nH]c3ccccc23)NC(=O)[C@H](Cc2ccc(O)cc2)NC(=O)[C@H](CCSCC(=O)NCCCCCCNC(=O)CN2CCN3CCN4CCN(CC2)CC(=O)[O][Lu]([O]C(=O)C3)[O]C(=O)C4)N(C)C(=O)[C@H](Cc2cnc[nH]2)NC1=O [RB-0005255] (cyclo(H[NMehCys](DOTA(Lu)NH(CH2)6NHCOCH2)Y[dW]KV))	1 to 3.33
CC(C)[C@@H]1NC(=O)[C@H](CCCCN)NC(=O)[C@@H](Cc2c[nH]c3ccccc23)NC(=O)[C@H](Cc2ccc(O)cc2)NC(=O)[C@H](CCSCC(=O)NCCCCCCNC(=O)CN2CCN3CCN4CCN(CC2)CC(=O)[O][Lu]([O]C(=O)C3)[O]C(=O)C4)N(C)C(=O)[C@H](C)NC1=O [RB-0005266] (cyclo(A[NMehCys](DOTA(Lu)NH(CH2)6NHCOCH2)Y[dW]KV))	< 1

From patent US20250222146A1, “Radiopharmaceuticals Targeting Somatostatin Receptor 2 and Uses Thereof” (RayzeBio, Inc., priority 2023, published 2025)
